The nature of the data set: Evaluation of vapor diffusion (chemical indicators in 2-meter long 4-mm inner diameter polytetrafluoroethylene tube). The format is physicochemical. To be noted: 50° C., less than 10 torr, 15-minute time period.
[1] abbreviates: introduced into chamber extension.
The mark [2] stands for this setting: introduced into process chamber.

Source text: A typical diffusion apparatus for conducting these evaluations includes a stainless-steel pressure chamber which is connected to a smaller stainless-steel extension chamber. Connection is made by means of a stainless-steel tube that contains a valve for isolating vapor flow between the vacuum chamber and the chamber extension. The chamber extension contains isolated compartments that admitted molecular mobility enhancer (MME) and/or liquid or solid agent components. The vacuum chamber and the chamber extension are independently heated. […] The isolated compartments within the chamber extension were independently heated. […] The chamber extension as a whole as well as the isolated compartments within the chamber extension are connected to MME and transport moiety sources via a valve and a conduit connected to a flow controller. The chamber extension is also outfitted with a door that can be used for placing solid agent sources within the extension. The entire system (vacuum chamber and chamber extension) is connected to a vacuum system e.g., (comprising a vacuum pump) capable of reducing the pressure and vaporizing the molecular mobility enhancer and liquid or solid transport moieties.
The tube and its contents were placed in the process chamber of the diffusion system. In this test the process chamber was heated to 50° C. […] The door to the diffusion system was closed and sealed. The diffusion system was evacuated to a pressure less than 10 torr. Multiple vaporization/diffusion cycles were performed over the course of a 15-minute time period. At the end of the process the diffusion system was brought to atmosphere and the tube and its contents were removed from the process chamber.
The tube and its contents were placed in the process chamber of the diffusion system. In this test the diffusion system was heated to 50° C. […] The door to the diffusion system was closed and sealed. The diffusion system including the chamber extension was evacuated to a pressure less than 10 torr. Multiple vaporization/diffusion cycles were performed over the course of a 15-minute time period.

As for `OO` [aqueous hydrogen peroxide (30 wt %), hydrogen peroxide], the “color change on chemical indicators: exposure of entire inner length of the tube to transport moiety vapor” value runs as follows: under setting [1], “entire inner length of the tube had not been exposed”; under setting [2], “entire inner length of the tube had not been exposed”.
Consider `CC(C)O` [isopropanol], for which the “color change on chemical indicators: exposure of entire inner length of the tube to transport moiety vapor” value is reported as “entire inner length of the tube had not been exposed” under setting [1] and “entire inner length of the tube had not been exposed” under setting [2].

Source of the values: patent US20230123589A1, “MOLECULAR MOBILITY ENHANCER OR MOLECULAR DRYING ENHANCER” (TEKDRY INTERNATIONAL, INC., priority 2020, published 2023).
